{
  "source": "patent US20240050524A1",
  "about": "“DELIVERY OF ABETA VARIANTS FOR AGGREGATION INHIBITION” (Baylor College of Medicine, priority 2020, published 2024)",
  "test_system": "γ-secretase",
  "experiment": "Dependence of Aβ release from transfected N2a cells on γ-secretase activity (IP/immunoblot of conditioned media)",
  "format": "cell-based, murine",
  "settings": "'KK' minimal construct; 0.1 or 1 nM",
  "protocol": "Collection of Aβ peptides from N2a conditioned media. N2a cells were grown in 6 well plates using Dulbecco's modified Eagle's medium (DMEM) (#12-604F, VWR) supplemented with […] penicillin/streptomycin and 10% fetal bovine serum until approximately 90% confluent. […] Twenty-four hours later, cells were washed with 1×Dulbecco's PBS, and a serum-reduced medium consisting of DMEM and 0.2% fetal bovine serum was added before the cells were returned to 5% CO2 at 37° C. Conditioned media was harvested 24 hr later and centrifuged at 10,000 rpm for 5 min at 4° C. (2 ml/well×3 wells per IP reaction). To test the dependence of Aβ release on γ-secretase activity, cells were transfected as above, with the subsequent media replacement including 0.1 or 1 nM of LY411575 (#SML0506, Sigma). Supernatants were collected and supplemented with protease inhibitors (#5892970001, Sigma) and 0.01% NaN3 (#S2002, Sigma) to prevent proteolytic degradation.\nAβ IP from conditioned media for immunoblot. Protein G Dynabeads (50 μl, #10003D, Fisher) were loaded with mouse anti-Aβ antibody 6E10 (1 ug, #SIG-39320, BioLegend, San Diego, CA) for 1 hr at RT. […] Antibody binding was detected using […] secondary antibody conjugated with IRDye, diluted 1:20,000 in block (#26-32210, LI-COR, Lincoln, NE). Blots were imaged with an Odyssey Fc Imager and analyzed with Image Studio software (LI-COR).",
  "note": "“Also recorded” adds a separate entry of the source.",
  "data": [
    {"smiles": "C[C@H](NC(=O)[C@@H](O)c1cc(F)cc(F)c1)C(=O)N[C@@H]1C(=O)N(C)c2ccccc2-c2ccccc21", "note": "[LY411575]", "values": [
      {"measurement": "block of Aβ secretion into the media", "value": "blocked release of variant Aβ into the media in a concentration-dependent manner; also recorded: blocked in a dose-dependent manner"}
    ]}
  ]
}
